target: GST-Xa-hAAK1 (Homo sapiens (Human), UniProt Q2M2I8); experiment: biochemical; conditions: not given
Procedure: The assays were performed in U-bottom 384-well plates. […] The reactions were initiated by the combination of bacterially expressed, GST-Xa-hAAK1 with substrates and test compounds. The reactions were incubated at room temperature for 3 hours and terminated by adding 60 μl of 35 mM EDTA buffer to each sample. The reactions were analyzed on the Caliper LabChip 3000 (Caliper, Hopkinton, Mass.) by electrophoretic separation of the fluorescent substrate and phosphorylated product. […] Compounds were dissolved at 10 mM in dimethylsulfoxide (DMSO) and evaluated at eleven concentrations. IC50 values were derived by non-linear regression analysis.

Chain of GST-Xa-hAAK1 (Q2M2I8 whole entry): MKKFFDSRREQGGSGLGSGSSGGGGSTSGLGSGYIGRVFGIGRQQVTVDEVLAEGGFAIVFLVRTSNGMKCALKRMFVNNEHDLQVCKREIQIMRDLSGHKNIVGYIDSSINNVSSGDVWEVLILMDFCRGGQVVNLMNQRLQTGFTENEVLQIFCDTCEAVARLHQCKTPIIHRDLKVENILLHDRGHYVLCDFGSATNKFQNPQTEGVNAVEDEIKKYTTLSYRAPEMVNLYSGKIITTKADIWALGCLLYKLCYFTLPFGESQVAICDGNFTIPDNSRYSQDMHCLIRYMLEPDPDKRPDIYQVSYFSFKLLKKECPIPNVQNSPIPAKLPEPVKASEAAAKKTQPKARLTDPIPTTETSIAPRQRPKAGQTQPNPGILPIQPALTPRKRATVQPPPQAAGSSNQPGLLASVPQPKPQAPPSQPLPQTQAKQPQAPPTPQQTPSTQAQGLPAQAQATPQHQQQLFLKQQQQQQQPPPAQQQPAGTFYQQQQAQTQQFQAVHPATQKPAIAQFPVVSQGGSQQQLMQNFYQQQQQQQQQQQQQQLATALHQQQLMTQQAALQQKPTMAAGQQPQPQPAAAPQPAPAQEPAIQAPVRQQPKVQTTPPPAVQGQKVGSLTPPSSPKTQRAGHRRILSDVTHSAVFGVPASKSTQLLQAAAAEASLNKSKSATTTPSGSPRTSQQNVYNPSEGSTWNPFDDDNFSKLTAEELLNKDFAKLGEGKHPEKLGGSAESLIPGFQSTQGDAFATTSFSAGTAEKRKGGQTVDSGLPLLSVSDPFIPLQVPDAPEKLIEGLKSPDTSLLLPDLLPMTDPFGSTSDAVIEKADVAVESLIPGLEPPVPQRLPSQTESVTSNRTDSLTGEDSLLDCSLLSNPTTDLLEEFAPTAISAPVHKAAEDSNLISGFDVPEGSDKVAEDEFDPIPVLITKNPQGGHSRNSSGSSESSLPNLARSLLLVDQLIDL

| SMILES | IC50 [nM] |
| --- | --- |
| COc1cc(-c2ccncc2)cc2nc([C@H](N)CC(C)C)[nH]c12 [Example 22, (R)-1-(7-methoxy-5-(pyridin-4-yl)-1H-benzo[d]imidazol-2-yl)-3-methylbutan-1-amine] | 52 |
| CC(C)CC(N)c1nc2ccc(-c3ccncc3)cc2s1 (stereo not drawn) [Example 98, 3-methyl-1-(6-(pyridin-4-yl)benzo[d]thiazol-2-yl)butan-1-amine] | 44 |
| CC(C)C[C@@H](N)c1nc2cc(-c3ccncc3)ccc2[nH]1 [Example 1, (R)-3-methyl-1-(5-(pyridin-4-yl)-1H-benzo[d]imidazol-2-yl)butan-1-amine] | 37 |
| Cn1nc(C(C)(C)C)cc1-c1nc2ccc(-c3ccncc3)cc2[nH]1 [Example 50, 2-(3-(tert-butyl)-1-methyl-1H-pyrazol-5-yl)-6-(pyridin-4-yl)-1H-benzo[d]imidazole] | 1730 |
| CC(C)C[C@@H](N)c1nc2cc(-c3cnco3)ccc2[nH]1 [Example 4, (R)-3-methyl-1-(5-(oxazol-5-yl)-1H-benzo[d]imidazol-2-yl)butan-1-amine] | 52 |
| CC(C)OCc1nc2ccc(-c3ccncc3)cc2[nH]1 [Example 54, 2-(isopropoxymethyl)-6-(pyridin-4-yl)-1H-benzo[d]imidazole] | 785 |
| COc1cc2[nH]c([C@H](N)C3CCCC3)nc2cc1-c1cnco1 [Example 68, (R)-cyclopentyl (6-methoxy-5-(oxazol-5-yl)-1H-benzo[d]imidazol-2-yl) methanamine] | 50 |
| N[C@H](CC1CC1)c1nc2cc(-c3ccncc3)ccc2[nH]1 [Example 70, (R)-2-cyclopropyl-1-(5-(pyridin-4-yl)-1H-benzo[d]imidazol-2-yl) ethanamine] | 61 |
| CCn1c([C@H](N)CC(C)C)nc2ccc(-c3ccncc3)cc21 [Example 33, (R)-1-(1-ethyl-6-(pyridin-4-yl)-1H-benzo[d]imidazol-2-yl)-3-methylbutan-1-amine] | 108 |
| CC(C)CC(CN)c1nc2cc(-c3ccncc3)ccc2[nH]1 (stereo not drawn) [Example 67, 4-methyl-2-(5-(pyridin-4-yl)-1H-benzo[d]imidazol-2-yl) pentan-1-amine] | 49 |
| CC1(C)CC1c1nc2ccc(-c3ccncc3)cc2[nH]1 (stereo not drawn) [Example 49, 2-(2,2-dimethylcyclopropyl)-6-(pyridin-4-yl)-1H-benzo[d]imidazole] | 338 |
| COc1cc2[nH]c(CC3CCCC3)nc2cc1-c1cnco1 [Example 69, 5-(2-(cyclopentylmethyl)-6-methoxy-1H-benzo[d]imidazol-5-yl) oxazole] | 57 |

same assay, conditions: ATP 22 μM; GST-Xa-hAAK1 3.5 nM; room temperature for 3 hours; Caliper LabChip 3000; read-out: AAK1 IC50

| SMILES | IC50 [nM] |
| --- | --- |
| NC(CC(C(F)(F)F)C(F)(F)F)c1nc2ccc(-c3cnco3)cc2[nH]1 (stereo not drawn) [Example 104, 4,4,4-trifluoro-1-(6-(oxazol-5-yl)-1H-benzo[d]imidazol-2-yl)-3-(trifluoromethyl)butan-1-amine] | 381 |
| NC(CCC(F)(F)F)c1nc2ccc(-c3cnco3)cc2[nH]1 (stereo not drawn) [Example 105, 4,4,4-trifluoro-1-(6-(oxazol-5-yl)-1H-benzo[d]imidazol-2-yl)butan-1-amine] | 150 |
| CCCn1c([C@H](N)CC(C)C)nc2ccc(-c3ccncc3)cc21 [Example 43, (R)-3-methyl-1-(1-propyl-6-(pyridin-4-yl)-1H-benzo[d]imidazol-2-yl)butan-1-amine] | 103 |
| CCn1c([C@H](N)CC(C)C)nc2cc(-c3cnco3)ccc21 [Example 46, (R)-1-(1-ethyl-5-(oxazol-5-yl)-1H-benzo[d]imidazol-2-yl)-3-methylbutan-1-amine] | 1540 |
| CC(C)CC(C)c1nc2cc(-c3ccncc3)ccc2[nH]1 (stereo not drawn) [Example 58, 2-(4-methylpentan-2-yl)-5-(pyridin-4-yl)-1H-benzo[d]imidazole] | 40 |
| CC(C)C[C@@H](N)c1nc2ccc(-c3cnco3)cc2n1CCO [Example 41, (R)-2-(2-(1-amino-3-methylbutyl)-6-(oxazol-5-yl)-1H-benzo[d]imidazol-1-yl)ethanol] | 559 |
| COc1cc2[nH]c(C(C)(N)CC(C)C)nc2cc1-c1cnco1 (stereo not drawn) [Example 108, 2-(6-methoxy-5-(oxazol-5-yl)-1H-benzo[d]imidazol-2-yl)-4-methylpentan-2-amine] | 60 |
| COc1cc(-c2cc(OC)c3[nH]c([C@H](N)CC(C)C)nc3c2)ccn1 [Example 24, (R)-1-(7-methoxy-5-(2-methoxypyridin-4-yl)-1H-benzo[d]imidazol-2-yl)-3-methylbutan-1-amine] | 1590 |
| CNC(CC(C)C)c1nc2cc(-c3cnco3)c(OC)cc2[nH]1 (stereo not drawn) [Example 107, 1-(6-methoxy-5-(oxazol-5-yl)-1H-benzo[d]imidazol-2-yl)-N,3-dimethylbutan-1-amine] | 16 |
| CC(C)C[C@@H](N)c1nc2ccc(-c3ccncc3)cc2n1CCO [Example 40, (R)-2-(2-(1-amino-3-methylbutyl)-6-(pyridin-4-yl)-1H-benzo[d]imidazol-1-yl)ethanol] | 271 |
| CC(C)C[C@@H](N)c1nc2cc(-c3ccncc3)c(F)cc2[nH]1 [Example 30, (R)-1-(6-fluoro-5-(pyridin-4-yl)-1H-benzo[d]imidazol-2-yl)-3-methylbutan-1-amine] | 88 |
| CC(C)C[C@@H](N)c1nc2cc(-c3ccnc(N)n3)ccc2[nH]1 [Example 16, (R)-4-(2-(1-amino-3-methylbutyl)-1H-benzo[d]imidazol-5-yl)pyrimidin-2-amine] | 202 |
| CC(C)C[C@@H](N)c1nc2cc(-c3ccnc(N(C)C)n3)ccc2[nH]1 [Example 14, (R)-4-(2-(1-amino-3-methylbutyl)-1H-benzo[d]imidazol-5-yl)-N,N-dimethylpyrimidin-2-amine] | 198 |
| CCn1c([C@H](N)CC(C)C)nc2cc(-c3ccncc3)ccc21 [Example 45, (R)-1-(1-ethyl-5-(pyridin-4-yl)-1H-benzo[d]imidazol-2-yl)-3-methylbutan-1-amine] | 749 |
| CC(C)C[C@@H](N)c1nc2cc(-c3ccnc4ccccc34)ccc2[nH]1 [Example 9, (R)-3-methyl-1-(5-(quinolin-4-yl)-1H-benzo[d]imidazol-2-yl)butan-1-amine] | 13 |
| CC(C)C[C@H](N)c1nc2cc(-c3cnco3)ccc2[nH]1 [Example 5, (S)-3-methyl-1-(5-(oxazol-5-yl)-1H-benzo[d]imidazol-2-yl)butan-1-amine] | 93 |
| COc1cnccc1-c1ccc2nc([C@H](N)CC(C)C)n(CC(F)(F)F)c2c1 [Example 35, (R)-1-(6-(3-methoxypyridin-4-yl)-1-(2,2,2-trifluoroethyl)-1H-benzo[d]imidazol-2-yl)-3-methylbutan-1-amine] | 25 |
| CC1CC1c1nc2ccc(-c3ccncc3)cc2[nH]1 (stereo not drawn) [Example 48, 2-(2-methylcyclopropyl)-6-(pyridin-4-yl)-1H-benzo[d]imidazole] | 897 |
| CC(C)C[C@@H](N)c1nc2cc(-c3ccnc(C#N)c3)ccc2[nH]1 [Example 15, (R)-4-(2-(1-amino-3-methylbutyl)-1H-benzo[d]imidazol-5-yl)picolinonitrile] | 289 |

same assay, conditions: read-out: AAK1 IC50

| SMILES | IC50 [nM] |
| --- | --- |
| CC(C)C[C@@H](NCC(F)(F)F)c1nc2cc(-c3ccncc3)ccc2[nH]1 [Example 66, 3-methyl-1-(5-(pyridin-4-yl)-1H-benzo[d]imidazol-2-yl)-N-(2,2,2-trifluoroethyl)butan-1-amine] | 45 |
| C/C(=C\C(C)C)c1nc2cc(-c3ccncc3)ccc2o1 [Example 86, (E)-2-(4-methylpent-2-en-2-yl)-5-(pyridin-4-yl)benzo[d]oxazole] | 2310 |
